Assays:
[1] = molecular target: T1, Ankyrin repeat and protein kinase domain-containing protein 1 (Homo sapiens) (UniProt Q8NFD2); conditions: at 10 µM
T1 sequence (whole entry): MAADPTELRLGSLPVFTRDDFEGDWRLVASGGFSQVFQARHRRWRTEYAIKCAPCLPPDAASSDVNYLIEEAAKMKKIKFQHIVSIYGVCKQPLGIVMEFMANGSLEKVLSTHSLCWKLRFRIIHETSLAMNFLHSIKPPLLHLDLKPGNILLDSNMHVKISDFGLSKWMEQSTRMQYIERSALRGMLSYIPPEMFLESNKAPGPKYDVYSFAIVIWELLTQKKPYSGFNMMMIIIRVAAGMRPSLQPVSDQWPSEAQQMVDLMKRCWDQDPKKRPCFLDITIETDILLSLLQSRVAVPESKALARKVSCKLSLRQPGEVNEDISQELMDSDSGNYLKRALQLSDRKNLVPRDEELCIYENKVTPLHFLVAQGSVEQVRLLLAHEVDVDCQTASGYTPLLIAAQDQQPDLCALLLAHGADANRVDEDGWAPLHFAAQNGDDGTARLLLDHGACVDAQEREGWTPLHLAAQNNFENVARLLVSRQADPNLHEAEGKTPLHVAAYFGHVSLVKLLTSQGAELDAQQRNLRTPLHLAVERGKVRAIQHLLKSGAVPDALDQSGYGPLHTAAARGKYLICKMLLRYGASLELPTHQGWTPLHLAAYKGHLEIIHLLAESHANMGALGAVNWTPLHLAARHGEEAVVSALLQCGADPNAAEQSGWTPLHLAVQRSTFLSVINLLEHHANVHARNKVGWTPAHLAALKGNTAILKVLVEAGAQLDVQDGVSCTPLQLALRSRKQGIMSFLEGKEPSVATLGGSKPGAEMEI

[2] = molecular target: T2, NUAK family SNF1-like kinase 2 (Homo sapiens) (UniProt Q9H093); test: Selectivity interaction (ProQinase) EUB0000171b NUAK2
T2 sequence (whole entry): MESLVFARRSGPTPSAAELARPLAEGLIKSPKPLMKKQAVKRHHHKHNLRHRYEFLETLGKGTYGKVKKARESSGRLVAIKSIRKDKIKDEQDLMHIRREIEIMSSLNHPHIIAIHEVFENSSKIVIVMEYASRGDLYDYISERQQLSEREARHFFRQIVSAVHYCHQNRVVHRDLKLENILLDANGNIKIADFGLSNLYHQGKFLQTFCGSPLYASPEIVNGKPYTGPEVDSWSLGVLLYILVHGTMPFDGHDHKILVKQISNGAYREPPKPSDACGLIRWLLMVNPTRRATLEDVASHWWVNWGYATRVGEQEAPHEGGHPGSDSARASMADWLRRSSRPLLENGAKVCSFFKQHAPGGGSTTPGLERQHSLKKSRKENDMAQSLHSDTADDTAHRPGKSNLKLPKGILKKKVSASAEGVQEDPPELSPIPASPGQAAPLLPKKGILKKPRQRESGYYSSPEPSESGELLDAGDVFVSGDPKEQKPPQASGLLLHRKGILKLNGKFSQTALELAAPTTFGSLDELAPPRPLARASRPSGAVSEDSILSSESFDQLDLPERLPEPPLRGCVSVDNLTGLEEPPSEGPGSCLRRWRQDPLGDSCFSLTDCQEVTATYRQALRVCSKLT

[3] = molecular target: Casein kinase I isoform gamma-3 (Homo sapiens) (UniProt Q9Y6M4); test: Selectivity interaction (KinomeScan (DiscoverX)) EUB0001079a CSNK1G3; conditions: at 1 µM
[4] = molecular target: Bromodomain testis-specific protein (Homo sapiens) (UniProt Q58F21); test: Selectivity interaction (Human bromodomain panel (DSF assay)) EUB0000233b BRDT
[5] = molecular target: T3, Cytoplasmic tyrosine-protein kinase BMX (Homo sapiens) (UniProt P51813); test: Selectivity interaction (KinomeScan (DiscoverX)) EUB0000607a BMX; conditions: at 10 µM
T3 sequence (whole entry): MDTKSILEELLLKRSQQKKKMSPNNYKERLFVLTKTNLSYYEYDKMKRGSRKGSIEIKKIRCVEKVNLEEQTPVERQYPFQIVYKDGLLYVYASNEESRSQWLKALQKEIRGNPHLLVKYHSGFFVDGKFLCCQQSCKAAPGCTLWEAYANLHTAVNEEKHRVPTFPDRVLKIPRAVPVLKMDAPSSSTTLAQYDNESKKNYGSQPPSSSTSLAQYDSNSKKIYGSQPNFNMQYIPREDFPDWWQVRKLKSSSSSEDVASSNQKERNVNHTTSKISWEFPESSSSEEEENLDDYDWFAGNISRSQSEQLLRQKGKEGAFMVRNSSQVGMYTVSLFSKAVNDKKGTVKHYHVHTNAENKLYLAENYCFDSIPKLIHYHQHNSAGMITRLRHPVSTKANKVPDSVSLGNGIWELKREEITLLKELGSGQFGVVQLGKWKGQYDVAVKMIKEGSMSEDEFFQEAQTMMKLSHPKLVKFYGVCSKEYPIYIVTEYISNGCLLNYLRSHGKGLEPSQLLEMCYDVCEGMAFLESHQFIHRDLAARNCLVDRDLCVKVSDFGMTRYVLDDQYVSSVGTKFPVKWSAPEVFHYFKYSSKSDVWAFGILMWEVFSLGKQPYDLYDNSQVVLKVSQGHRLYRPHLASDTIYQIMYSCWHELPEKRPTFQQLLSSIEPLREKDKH

[6] = molecular target: T4, Serine/threonine-protein kinase 17A (Homo sapiens) (UniProt Q9UEE5); test: Selectivity interaction (KinomeScan (DiscoverX)) EUB0001049a STK17A; conditions: at 1 µM
T4 sequence (whole entry): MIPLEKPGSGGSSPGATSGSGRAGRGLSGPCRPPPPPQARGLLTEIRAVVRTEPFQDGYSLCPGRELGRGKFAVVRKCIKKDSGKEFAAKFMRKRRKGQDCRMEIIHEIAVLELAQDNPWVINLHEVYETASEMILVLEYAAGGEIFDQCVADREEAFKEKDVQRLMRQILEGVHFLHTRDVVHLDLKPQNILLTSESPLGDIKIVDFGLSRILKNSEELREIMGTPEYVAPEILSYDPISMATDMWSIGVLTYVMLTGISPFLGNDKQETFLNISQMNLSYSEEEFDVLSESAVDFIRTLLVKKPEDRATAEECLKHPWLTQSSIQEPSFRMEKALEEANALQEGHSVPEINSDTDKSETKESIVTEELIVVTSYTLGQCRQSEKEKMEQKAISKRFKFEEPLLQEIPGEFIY

[7] = molecular target: Macrophage-stimulating protein receptor (Homo sapiens, UniProt Q04912); test: Selectivity interaction (KinomeScan (DiscoverX)) EUB0000618a MST1R; conditions: at 10 µM
[8] = molecular target: Ribosomal protein S6 kinase alpha-1 (Homo sapiens, UniProt Q15418); test: Selectivity interaction (KinomeScan (DiscoverX)) EUB0000618a RPS6KA1; conditions: at 10 µM
Ribosomal protein S6 kinase alpha-1, sequence (Q15418 whole entry): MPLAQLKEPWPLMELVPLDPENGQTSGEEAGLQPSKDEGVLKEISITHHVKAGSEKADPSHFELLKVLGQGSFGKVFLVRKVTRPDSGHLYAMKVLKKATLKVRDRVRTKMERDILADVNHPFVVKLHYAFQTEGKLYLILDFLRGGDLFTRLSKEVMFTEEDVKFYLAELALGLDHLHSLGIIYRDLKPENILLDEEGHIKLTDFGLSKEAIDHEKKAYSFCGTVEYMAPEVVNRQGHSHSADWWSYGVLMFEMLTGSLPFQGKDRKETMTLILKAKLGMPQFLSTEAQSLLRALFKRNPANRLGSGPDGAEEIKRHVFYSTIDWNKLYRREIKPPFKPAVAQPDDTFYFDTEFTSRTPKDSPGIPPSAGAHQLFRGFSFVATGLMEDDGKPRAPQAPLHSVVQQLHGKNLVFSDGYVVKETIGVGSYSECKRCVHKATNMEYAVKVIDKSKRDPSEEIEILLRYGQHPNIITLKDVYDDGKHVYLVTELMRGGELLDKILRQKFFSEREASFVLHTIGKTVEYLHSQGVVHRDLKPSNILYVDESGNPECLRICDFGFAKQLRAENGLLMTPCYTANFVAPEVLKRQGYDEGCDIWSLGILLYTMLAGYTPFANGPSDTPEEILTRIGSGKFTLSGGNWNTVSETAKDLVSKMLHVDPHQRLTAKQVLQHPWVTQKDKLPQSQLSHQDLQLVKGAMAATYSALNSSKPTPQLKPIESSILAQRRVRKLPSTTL

Macrophage-stimulating protein receptor, sequence (Q04912 25-304 limits assumed): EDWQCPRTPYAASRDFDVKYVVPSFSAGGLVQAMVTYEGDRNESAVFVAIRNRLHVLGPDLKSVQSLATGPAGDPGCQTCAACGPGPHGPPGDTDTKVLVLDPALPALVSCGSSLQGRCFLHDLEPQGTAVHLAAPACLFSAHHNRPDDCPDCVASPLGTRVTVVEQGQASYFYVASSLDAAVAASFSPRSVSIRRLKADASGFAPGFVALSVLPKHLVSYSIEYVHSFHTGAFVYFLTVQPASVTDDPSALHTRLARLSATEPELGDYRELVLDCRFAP
Macrophage-stimulating protein receptor, sequence (Q04912 310-1400 limits assumed): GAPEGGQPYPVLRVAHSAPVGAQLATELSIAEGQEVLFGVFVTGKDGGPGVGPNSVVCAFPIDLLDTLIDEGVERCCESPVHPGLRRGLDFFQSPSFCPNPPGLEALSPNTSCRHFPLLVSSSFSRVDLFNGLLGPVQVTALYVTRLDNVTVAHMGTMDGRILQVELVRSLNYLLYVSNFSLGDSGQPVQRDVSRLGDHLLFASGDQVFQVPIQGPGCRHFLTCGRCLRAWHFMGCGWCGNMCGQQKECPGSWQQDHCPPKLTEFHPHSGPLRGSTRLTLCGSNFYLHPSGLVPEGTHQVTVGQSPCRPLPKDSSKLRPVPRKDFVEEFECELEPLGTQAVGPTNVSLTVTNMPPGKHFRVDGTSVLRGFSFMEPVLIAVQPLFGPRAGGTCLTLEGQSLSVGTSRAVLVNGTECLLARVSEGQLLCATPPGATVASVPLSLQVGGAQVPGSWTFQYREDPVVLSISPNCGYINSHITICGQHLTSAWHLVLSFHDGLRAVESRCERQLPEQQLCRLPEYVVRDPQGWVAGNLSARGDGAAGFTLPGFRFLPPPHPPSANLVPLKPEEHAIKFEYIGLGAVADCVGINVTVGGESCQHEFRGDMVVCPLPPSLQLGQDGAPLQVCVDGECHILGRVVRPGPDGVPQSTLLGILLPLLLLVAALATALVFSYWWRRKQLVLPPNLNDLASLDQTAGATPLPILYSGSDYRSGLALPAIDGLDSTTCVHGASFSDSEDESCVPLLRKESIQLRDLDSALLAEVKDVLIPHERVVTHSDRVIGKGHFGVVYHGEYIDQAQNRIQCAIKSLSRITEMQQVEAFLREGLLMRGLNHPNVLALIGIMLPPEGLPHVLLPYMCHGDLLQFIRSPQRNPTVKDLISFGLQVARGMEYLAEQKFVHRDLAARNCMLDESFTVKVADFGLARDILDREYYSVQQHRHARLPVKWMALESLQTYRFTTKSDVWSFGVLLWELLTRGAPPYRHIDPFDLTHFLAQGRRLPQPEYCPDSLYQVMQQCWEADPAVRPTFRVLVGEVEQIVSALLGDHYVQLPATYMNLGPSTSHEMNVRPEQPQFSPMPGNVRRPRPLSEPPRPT
Casein kinase I isoform gamma-3 (Homo sapiens), sequence (Q9Y6M4 whole entry, looked up, canonical isoform): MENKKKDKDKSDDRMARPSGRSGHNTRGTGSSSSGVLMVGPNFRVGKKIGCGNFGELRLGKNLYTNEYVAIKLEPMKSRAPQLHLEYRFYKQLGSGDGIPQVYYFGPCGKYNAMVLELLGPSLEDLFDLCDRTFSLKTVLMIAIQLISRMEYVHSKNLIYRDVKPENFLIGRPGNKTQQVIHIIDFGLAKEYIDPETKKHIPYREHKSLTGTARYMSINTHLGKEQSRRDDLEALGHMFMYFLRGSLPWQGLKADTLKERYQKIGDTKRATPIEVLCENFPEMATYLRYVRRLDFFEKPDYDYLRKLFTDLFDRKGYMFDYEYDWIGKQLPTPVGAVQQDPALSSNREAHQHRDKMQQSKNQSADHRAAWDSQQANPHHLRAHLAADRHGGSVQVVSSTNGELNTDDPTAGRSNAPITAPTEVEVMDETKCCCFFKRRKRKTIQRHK

Question: With `CCN(CC)CCCCNc1ncc2cc(-c3cc(OC)cc(OC)c3)c(NC(=O)NC(C)(C)C)nc2n1` as the compound, how does the % of control [1] read?
Answer: 100%

Question: Which % of control ([2]; at 1 µM) does the source give for `C=CC(=O)Nc1cccc(C(=O)Nc2ccc(Nc3cc(-c4[nH]c(SC)nc4C)ccn3)cc2)c1` here?
Answer: 99%

Question: What about the % of control ([2]; at 5 µM) of the same compound?
Answer: 87%

Question: Which % of control [3] does the source give for `Nc1cnc(N2CCc3cc(S(=O)(=O)Nc4c(F)cc(Cl)cc4F)cc(N4CCCC4=O)c32)nc1` [TP-020n] here?
Answer: 78%

Question: For `CN(C)CCCOc1ccc(-c2cc(NCCCn3cccn3)nc(S(C)(=O)=O)n2)cc1`, which dTM [4] is on record?
Answer: < 2 K

Question: For `CNC(=O)Nc1ccc(-c2nc(N3CC4CCC(C3)O4)c3cnn(C4CCC5(CC4)OCCO5)c3n2)cc1`, which % of control [5] is on record?
Answer: 83%

Question: With `COc1cc(Nc2nc(C)cc(-c3cnn4nc(OC)ccc34)n2)cc(C(F)(F)F)c1` as the compound, how does the % of control [6] read?
Answer: 66%

Question: `O[C@H]1CC[C@H](Nc2ncc3nc(Nc4c(F)cc(F)cc4F)n([C@H]4CCOC4)c3n2)CC1` was tested. Which % of control [7] did it give?
Answer: 100%

Question: And the % of control [8]?
Answer: 70%
